Data published in PubChem BioAssay (NCI).
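Test compounds were applied to cells in 96-well plates for 48 hours at 5 doses. At the TGI there is no net growth.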

Columns and labels:
Experiment in all cases: NCI-60 cell line screen, 48 h
786-0 renal = tested on: 786-0 renal
A498 renal = tested on: A498 renal
A549 NSCLC = tested on: A549 NSCLC
ACHN renal = tested on: ACHN renal
BT-549 breast = tested on: BT-549 breast
CAKI-1 renal = tested on: CAKI-1 renal
CCRF-CEM leukemia = tested on: CCRF-CEM leukemia
COLO 205 colon = tested on: COLO 205 colon
EKVX NSCLC = tested on: EKVX NSCLC
HCC-2998 colon = tested on: HCC-2998 colon
HCT-116 colon = tested on: HCT-116 colon
HCT-15 colon = tested on: HCT-15 colon
HL-60(TB) leukemia = tested on: HL-60(TB) leukemia
HOP-62 NSCLC = tested on: HOP-62 NSCLC
HOP-92 NSCLC = tested on: HOP-92 NSCLC
HS 578T breast = tested on: HS 578T breast
HT29 colon = tested on: HT29 colon
IGROV1 ovarian = tested on: IGROV1 ovarian
K-562 leukemia = tested on: K-562 leukemia
KM12 colon = tested on: KM12 colon
LOX IMVI melanoma = tested on: LOX IMVI melanoma
M14 melanoma = tested on: M14 melanoma
MALME-3M melanoma = tested on: MALME-3M melanoma
MCF7 breast = tested on: MCF7 breast
MDA-MB-231 breast = tested on: MDA-MB-231 breast
MDA-MB-435 = tested on: MDA-MB-435
MDA-N = tested on: MDA-N
MOLT-4 leukemia = tested on: MOLT-4 leukemia
NCI-H226 lung = tested on: NCI-H226 lung
NCI-H23 lung = tested on: NCI-H23 lung
NCI-H460 lung = tested on: NCI-H460 lung
NCI-H522 lung = tested on: NCI-H522 lung
NCI/ADR-RES ovarian = tested on: NCI/ADR-RES ovarian
OVCAR-3 ovarian = tested on: OVCAR-3 ovarian
OVCAR-4 ovarian = tested on: OVCAR-4 ovarian
OVCAR-5 ovarian = tested on: OVCAR-5 ovarian
OVCAR-8 ovarian = tested on: OVCAR-8 ovarian
PC-3 prostate = tested on: PC-3 prostate
RPMI-8226 leukemia = tested on: RPMI-8226 leukemia
RXF 393 renal = tested on: RXF 393 renal
SF-268 CNS = tested on: SF-268 CNS
SF-295 CNS = tested on: SF-295 CNS
SF-539 CNS = tested on: SF-539 CNS
SK-MEL-2 melanoma = tested on: SK-MEL-2 melanoma
SK-MEL-28 melanoma = tested on: SK-MEL-28 melanoma
SK-MEL-5 melanoma = tested on: SK-MEL-5 melanoma
SK-OV-3 ovarian = tested on: SK-OV-3 ovarian
SN12C renal = tested on: SN12C renal
SNB-19 CNS = tested on: SNB-19 CNS
SNB-75 CNS = tested on: SNB-75 CNS
SW-620 colon = tested on: SW-620 colon
T-47D breast = tested on: T-47D breast
TK-10 renal = tested on: TK-10 renal
U251 CNS = tested on: U251 CNS
UACC-257 melanoma = tested on: UACC-257 melanoma
UACC-62 melanoma = tested on: UACC-62 melanoma
UO-31 renal = tested on: UO-31 renal

Measured: TGI

CCCCCCCCCCCCOP(=O)(O)OP(=O)(O)OCC1OC(n2ccc(N)nc2=O)CC1O (configuration not stated)
> 100 µM: 786-0 renal | A498 renal | A549 NSCLC | ACHN renal | BT-549 breast | CAKI-1 renal | CCRF-CEM leukemia | COLO 205 colon | EKVX NSCLC | HCC-2998 colon | HCT-116 colon | HCT-15 colon | HL-60(TB) leukemia | HOP-62 NSCLC | HOP-92 NSCLC | HS 578T breast | HT29 colon | IGROV1 ovarian | K-562 leukemia | KM12 colon | LOX IMVI melanoma | M14 melanoma | MALME-3M melanoma | MCF7 breast | MDA-MB-231 breast | MDA-MB-435 | MDA-N | MOLT-4 leukemia | NCI-H226 lung | NCI-H23 lung | NCI-H460 lung | NCI-H522 lung | NCI/ADR-RES ovarian | OVCAR-3 ovarian | OVCAR-4 ovarian | OVCAR-5 ovarian | OVCAR-8 ovarian | PC-3 prostate | RPMI-8226 leukemia | RXF 393 renal | SF-268 CNS | SF-295 CNS | SF-539 CNS | SK-MEL-2 melanoma | SK-MEL-28 melanoma | SK-MEL-5 melanoma | SK-OV-3 ovarian | SN12C renal | SNB-19 CNS | SNB-75 CNS | SW-620 colon | T-47D breast | TK-10 renal | U251 CNS | UACC-257 melanoma | UACC-62 melanoma | UO-31 renal
